{"source": "patent US11738087B2", "about": "“Lymph directing prodrugs” (Monash University, priority 2015, dated 2023)", "key": {"[1]": {"assay": "Lymphatic transport studies in rats (mesenteric lymph duct cannulated, intraduodenal infusion)", "conditions": "for Transport of total TST derivatives in lymph (% of dose): intraduodenal infusion, anaesthetised, mesenteric lymph-duct cannulated female SD rats, mean ± SEM (n≥3) or mean ± range (n=2); for Fold increase (compared with control group dosed with TU): lymphatic transport, testosterone series, female SD rats"}, "lipoprotein lipase (LPL)": {"tested_on": "lipoprotein lipase (LPL)", "assay": "In vitro release of MPA from prodrugs in rat lymph supplemented with lipoprotein lipase", "type": "in vitro ADME", "conditions": "LPL 200 unit/ml, 37° C., n=1; FIG. 10", "description": "In order to probe the release of free MPA from TG prodrugs in the lymphatics (the active site of MPA is in lymphocytes that are enriched in the lymphatic system), MPA prodrugs were incubated with rat lymph supplemented with lipoprotein lipase (LPL, 200 unit/ml). LPL is a key enzyme required for the hydrolysis of lipoprotein associated TG in normal physiological conditions and is therefore expected to be a key contributor to lipolysis of the re-esterified Drug-TG construct in plasma, largely via liberation of FAs in the sn-1 and the sn-3 position of the TG-mimetic, prior to drug release from the 2′ positon via esterase hydrolysis. LPL is tethered to lymphocytes or lymphatic/vascular endothelial cells under physiological conditions. In the current in vitro studies, rat lymph was therefore supplemented with LPL to better reflect the in vivo situation. To start hydrolysis, 10 μl of LPL solution (10,000 unit/ml) was added to a mixture of 10 μl of prodrug solution (1 mg/ml dissolved in acetonitrile) and 500 μl of blank Sprague Dawley rat lymph. The solution was incubated at 37° C. Samples (20 μl) of the incubation solution were taken at 0, 5, 10, 15, 30, 60, 90, 120 and 180 minutes post incubation and added to 980 μl of 9:1 (v/v) ACN-water to stop lipolysis. […] The supernatant was analysed by HPLC-MS/MS for MPA concentrations."}, "[2]": {"conditions": "'is thought to be'; cited from earlier work"}, "[3]": {"assay": "Pharmacokinetic (PK) studies in rats after oral gavage (plasma free parent drug)", "conditions": "for AUC0-24 h fold increase compared with TU group: plasma testosterone exposure; for Tmax / AUC0-24 h: plasma testosterone, mean ± SEM; for AUC0-24 h: normalized to 2 mg/kg equivalent testosterone dose; for Cmax: read-out: Cmax (nmol/L), plasma testosterone, conscious carotid artery cannulated SD female rats, normalized to 2 mg/kg equivalent testosterone dose, mean ± SEM"}, "[4]": {"tested_on": "porcine pancreatic lipase", "assay": "In vitro hydrolysis of compounds by porcine pancreatic lipase (stability of monoglyceride forms)", "type": "in vitro ADME", "conditions": "simulated intestinal micellar solution, pH 6.5, 37° C., up to 180 minutes; FIG. 9", "description": "In vitro hydrolysis of testosterone prodrugs was performed via incubation with porcine pancreatic lipase. Briefly, pancreatic lipase solution was prepared prior to the hydrolysis experiment by dispersion of 1 g porcine pancreatin in 5 ml of lipolysis buffer. The suspension was mixed well and centrifuged at 3500 rpm for 15 minutes at 5° C. to provide a supernatant. An amount of 1000 ml of lipolysis buffer was prepared with 0.474 g of tris-maleate (2 mM), 0.206 g of CaCl2·H2O (1.4 mM) and 8.775 g of NaCl (150 mM) adjusted with NaOH to pH 6.5. To assess the potential for prodrug hydrolysis in the intestine, 20 μl of prodrug solution (1 mg/ml dissolved in acetonitrile), 900 μl of simulated intestinal micellar solution [prepared with 0.783 g of NaTDC (3 mM) and 0.291 g of phosphatidyl choline (0.75 mM) in 500 ml lipolysis buffer] and 100 μl of enzyme solution were incubated at 37° C. […] The supernatant was analysed by HPLC-MS for residual compound concentrations, and the potential products of compound hydrolysis were analysed.\nOn incubation with digestive enzymes, the monoglycerides forms of the prodrugs are formed very rapidly. The stability in simulated intestinal conditions is therefore better assessed by the stability of the monoglycerides form that is generated by the initial digestion process. […]"}}, "data": [{"molecule": "C[C@]12CC[C@H]3[C@@H](CCC4=CC(=O)CC[C@@]43C)[C@@H]1CC[C@@H]2O", "note": "[Testosterone, testosterone]", "values": [{"measurement": "Transport of total TST derivatives in lymph (% of dose)", "setting": "[1]", "result": "Below LOQ*"}]}, {"molecule": "CCCCCCCCCCCCCCCC(=O)OCC(COC(=O)CCCCCCCCCCCCCCC)OC(=O)CC(C)CC(=O)OCOC(=O)CC/C(C)=C/Cc1c(O)c2c(c(C)c1OC)COC2=O", "note": "(stereo not shown) [Compound 10, (E)-1-(1,3-Bis(palmitoyloxy)propan-2-yl) 5-(((6-(4-hydroxy-6-methoxy-7-methyl-3-oxo-1,3-dihydroisobenzofuran-5-yl)-4-methylhex-4-enoyl)oxy)methyl) 3-methyl-pentanedioate]", "values": [{"measurement": "Release of MPA on incubation with LPL supplemented rat lymph", "setting": "lipoprotein lipase (LPL)", "result": "very rapid"}]}, {"molecule": "CCCCCCCCCCC(=O)O[C@H]1CC[C@H]2[C@@H]3CCC4=CC(=O)CC[C@]4(C)[C@H]3CC[C@]12C", "note": "[TU, testosterone undecanoate, reference compound]", "values": [{"measurement": "Bioavailability of testosterone after oral administration of the undecanoate ester", "setting": "[2]", "result": "< 5", "unit": "%"}, {"measurement": "AUC0-24 h fold increase compared with TU group", "setting": "[3]; SD female rats", "result": 1.0}, {"measurement": "Tmax", "setting": "[3]; SD female rats", "result": "1.5 ± 0.0", "unit": "h"}, {"measurement": "AUC0-24 h", "setting": "[3]; SD female rats", "result": "0.0068 ± 0.0004", "unit": "µM·h"}, {"measurement": "Cmax", "setting": "[3]", "result": "5.6 ± 0.5", "unit": "nmol/L"}, {"measurement": "Transport of total TST derivatives in lymph (% of dose)", "setting": "[1]", "result": "1.9 ± 0.3 % of dose"}, {"measurement": "Fold increase (compared with control group dosed with TU)", "setting": "[1]", "result": 1.0}]}, {"molecule": "CCCCCCCCCCCCCCCC(=O)OCC(COC(=O)CCCCCCCCCCCCCCC)OC(=O)CC(C)CC(=O)OC(C)OC(=O)CC/C(C)=C/Cc1c(O)c2c(c(C)c1OC)COC2=O", "note": "(stereo not shown) [Compound 11, (E)-1-(1,3-Bis(palmitoyloxy)propan-2-yl) 5-(1-((6-(4-hydroxy-6-methoxy-7-methyl-3-oxo-1,3-dihydroisobenzofuran-5-yl)-4-methylhex-4-enoyl)oxy)ethyl) 3-methylpentanedioate]", "values": [{"measurement": "Release of MPA on incubation with LPL supplemented rat lymph", "setting": "lipoprotein lipase (LPL)", "result": "very rapid"}]}, {"molecule": "1-(1,3-Bis(palmitoyloxy)propan-2-yl) 4-((((8R,9S,10R,13S,14S,17S)-10,13-dimethyl-3-oxo-2,3,6,7,8,9,10,11,12,13,14,15,16,17-tetradecahydro-1H-cyclopenta[a]phen-anthren-17-yl)oxy)methyl) 2/3-methylsuccinate [Compounds 13/14]", "values": [{"measurement": "Stability of the monoglyceride form during in vitro incubation with porcine pancreatic lipase", "setting": "[4]", "result": "much more stable"}, {"measurement": "Systemic exposure of testosterone, fold higher than Compound 12", "setting": "[3]; SD female rats", "result": "~13", "unit": "fold"}, {"measurement": "AUC0-24 h fold increase compared with TU group", "setting": "[3]; SD female rats", "result": 94.6}, {"measurement": "Tmax", "setting": "[3]; SD female rats", "result": "1.4 ± 0.1", "unit": "h"}, {"measurement": "AUC0-24 h", "setting": "[3]; SD female rats", "result": "0.6453 ± 0.1449", "unit": "µM·h"}, {"measurement": "Cmax", "setting": "[3]", "result": "568 ± 155", "unit": "nmol/L"}, {"measurement": "Transport of total TST derivatives in lymph (% of dose)", "setting": "[1]", "result": "8.0 ± 2.5 % of dose"}, {"measurement": "Fold increase (compared with control group dosed with TU)", "setting": "[1]", "result": 4.2}]}, {"molecule": "CCCCCCCCCCCCCCCC(=O)OCC(COC(=O)CCCCCCCCCCCCCCC)OC(=O)CCC(=O)OCO[C@H]1CC[C@H]2[C@@H]3CCC4=CC(=O)CC[C@]4(C)[C@H]3CC[C@]12C", "note": "[Compound 12, 1,3-Bis(palmitoyloxy)propan-2-yl ((((8R,9S,10R,13S,14S,17S)-10,13-dimethyl-3-oxo-2,3,6,7,8,9,10,11,12,13,14,15,16,17-tetradecahydro-1H-cyclopenta[a]phenanthren-17-yl)oxy)methyl) succinate]", "values": [{"measurement": "Stability of the monoglyceride form during in vitro incubation with porcine pancreatic lipase", "setting": "[4]", "result": "labile"}]}]}
